{"source": "patent US11241442B2", "about": "“Methods of use for TRP channel antagonist-based combination cancer therapies” (President and Fellows of Harvard College, priority 2017, dated 2022)", "assay_type_in_all_cases": "cell-based", "key": {"HCC1569 spheroids": {"system": "HCC1569 spheroids", "test": "[H2O2]i by Hyper-2 in HCC1569 spheroids", "details": "AP-18, 300 nM A-967079 or 5 mM NAC", "experimental": "(§1) For the measurement of [H2O2]i levels in MCF-10A acini and HCC1569 spheroids, cells were transduced with a lentiviral vector encoding Hyper-2 or Hyper-2 (C199S). The Hyper-2 fluorescence was measured at 37° C. in HEPES-buffered saline (HBS) containing the following (in mM): 150 NaCl, 6 KCl, 1.2 MgSO4, 2 CaCl2, 11.5 glucose, and 25 HEPES (pH adjusted to 7.4 with NaOH). Fluorescence images of the cells were acquired through the Eclipse Ti-E microscope (Nikon) with ORCA-R2 cooled CCD camera (Hamamatsu Photonics) and analyzed with Metafluor image acquisition software (Molecular Devices). The 488:405-nm ratio images were obtained on a pixel-by-pixel basis. 3D images are shown as one section from midstructure. For the measurement of [H2O2]i levels in MCF-10A cells cultured in suspension, cell clumps were dissociated with trypsin and stained with 10 μM peroxy green-1 for 30 min at 37° C. Cells were then subjected to flow cytometric analysis (FACSCalibur; BD Biosciences). ROS levels determined by flow cytometry are reported as mean fluorescence intensity expressed in arbitrary units. Hyper-2 ratio images are representative from two independent experiments and averaged Hyper-2 ratio represents mean±SD from the sum of two independent experiments."}, "TRPA1 [1]": {"target": "T1, TRPA1 (Homo sapiens, UniProt O75762)", "T1 construct": "endogenous in cells; host or cells: HCC1569 breast cancer cells (2D culture or 3D spheroids; shGFP or shTRPA1 transduced)", "T1 sequence (O75762 whole entry)": "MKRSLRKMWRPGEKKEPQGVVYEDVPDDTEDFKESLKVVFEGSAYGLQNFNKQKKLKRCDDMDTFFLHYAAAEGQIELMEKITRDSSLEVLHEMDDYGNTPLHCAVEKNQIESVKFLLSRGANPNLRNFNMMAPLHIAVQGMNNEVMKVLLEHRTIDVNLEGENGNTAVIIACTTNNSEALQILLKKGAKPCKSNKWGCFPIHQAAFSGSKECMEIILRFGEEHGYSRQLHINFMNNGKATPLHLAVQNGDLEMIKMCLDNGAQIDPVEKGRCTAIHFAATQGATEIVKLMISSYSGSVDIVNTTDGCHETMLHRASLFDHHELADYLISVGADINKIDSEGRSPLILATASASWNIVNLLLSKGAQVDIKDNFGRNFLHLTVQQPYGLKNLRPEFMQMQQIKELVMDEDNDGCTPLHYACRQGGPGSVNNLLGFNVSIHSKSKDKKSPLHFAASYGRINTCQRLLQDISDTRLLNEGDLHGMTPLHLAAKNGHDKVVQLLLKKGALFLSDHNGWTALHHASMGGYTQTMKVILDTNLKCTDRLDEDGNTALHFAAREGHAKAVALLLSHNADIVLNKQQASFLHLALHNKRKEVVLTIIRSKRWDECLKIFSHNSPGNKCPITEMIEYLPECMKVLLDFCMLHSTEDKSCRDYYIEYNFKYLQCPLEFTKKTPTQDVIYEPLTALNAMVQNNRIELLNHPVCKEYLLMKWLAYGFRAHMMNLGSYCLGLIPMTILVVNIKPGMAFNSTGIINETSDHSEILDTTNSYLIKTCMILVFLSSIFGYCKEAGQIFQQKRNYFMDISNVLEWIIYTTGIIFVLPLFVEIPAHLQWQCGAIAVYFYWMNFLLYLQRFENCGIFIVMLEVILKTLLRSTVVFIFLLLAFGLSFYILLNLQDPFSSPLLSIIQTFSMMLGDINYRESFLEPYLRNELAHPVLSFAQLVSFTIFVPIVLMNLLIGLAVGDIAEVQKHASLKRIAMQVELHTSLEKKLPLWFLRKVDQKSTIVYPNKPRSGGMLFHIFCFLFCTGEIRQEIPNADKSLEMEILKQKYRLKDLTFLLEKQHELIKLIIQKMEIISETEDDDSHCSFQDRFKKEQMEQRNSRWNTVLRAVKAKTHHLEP", "test": "[Ca2+]i by fura-2 in HCC1569 spheroids", "details": "AP-18, 300 nM A-967079 or 5 mM NAC", "experimental": "(§2) For the measurement of [Ca^2+]i levels in cells cultured in 2D or 3D (in Matrigel), cells were stained with 3.5 μM fura-2-AM (Life Technology) in the presence of 2.5 mM probenecid (Sigma) and 0.02% Pluronic F-127 (Sigma) for 45 min at 37° C. The fura-2 fluorescence was measured in HBS solution containing 1.25 mM probenecid at 37° C. Fluorescence images of the cells were acquired through the Eclipse Ti-E microscope with ORCA-R2 cooled CCD camera and analyzed with Metafluor. The 340:380-nm ratio images were obtained on a pixel-by-pixel basis and were converted to Ca^2+ concentrations by in vivo calibration using 5 μM ionomycin as described previously (Nishida et al., Biochem. Biophys. Res. Commun., 262:350-354, 1999). 3D images are shown as one section from midstructure. For the measurement of [Ca^2+]i levels in cells cultured in suspension, cell clumps were dissociated with trypsin and [Ca^2+]i levels were determined by using Fluo-4 NW Calcium Assay Kit (Molecular Probes). Cells were stained with Fluo-4 according to the manufacturer's instructions and subjected to flow cytometric analysis (FACSCalibur) using HBS as sheath fluid. [Ca^2+]i levels determined by flow cytometry are reported as mean fluorescence intensity expressed in arbitrary units. Time courses of [Ca^2+]i rises in 2D culture are representative of three independent experiments and averaged Δ[Ca^2+]i represents mean±SEM from the sum of three independent experiments. Fura-2 ratio images in 3D culture are representative of two independent experiments and averaged [Ca^2+]i in 3D culture represents mean±SEM from the sum of two independent experiments."}, "MCF-10A acini": {"system": "MCF-10A acini", "test": "[H2O2]i by Hyper-2 in MCF-10A 3D acini", "experimental": "as §1"}, "NSCLC cells": {"system": "NSCLC cells", "test": "H2O2- and carboplatin-induced cytotoxicity in NSCLC cells", "details": "TRPA1 expression-dependent", "experimental": "(§3) For the measurements of live cell number and cell death under treatment with H2O2, diamide, or chemotherapies, cells were cultured on 96-well plates in the presence or absence of these drugs for indicated times and stained with 5 μM bisBenzimide H 33342 trihydrochloride (Hoechst; Sigma) and 5 μM propidium iodide (PI; Sigma) for 1 h at 37° C. Hoechst- and/or PI-positive cells were counted using a laser scanning cytometer, Acumen Cellista (TTPLabTech). Apoptotic cells induced by H2O2 treatment were measured by staining with Annexin V-Alexa Fluor® 488 conjugate (Life Technologies) and PI in Ca^2+-containing solution (10 mM HEPES pH 7.4, 140 mM NaCl; 2.5 mM CaCl2), followed by flow cytometric measurement of fluorescence using a FACSCalibur. Flow cytometry plots are representative of three independent experiments. […] Viable cells were counted using the Countless Automated Cell Counters (Thermo Fisher Scientific). […] Hoechst- and/or PI-positive areas were measured using Acumen Cellista. Apoptotic cells induced by detachment were measured by staining with 5 μM Hoechst and 5 μM of CellEvent™ Caspase-3/7 Green Detection Reagent (Thermo Fisher Scientific) for 1 h at 37° C. without enzymatic dissociation of cell clumps. Hoechst- and/or CellEvent™ Caspase-3/7 Green Detection Reagent-positive areas were measured using Acumen Cellista. […]"}, "MPNST cells": {"system": "MPNST cells", "test": "H2O2- and carboplatin-induced cytotoxicity in MPNST cells", "details": "TRPA1 expression-dependent", "experimental": "as §3"}, "HCC1500": {"system": "HCC1500", "test": "Live cell number under carboplatin in HCC1500 cells", "details": "10 μM AP-18; carboplatin 72 h; HCC1500, very low TRPA1", "experimental": "as §3"}, "EL-12-58 cells [2]": {"system": "EL-12-58 cells", "test": "Live cell number under carboplatin in EL-12-58 cells", "details": "10 μM AP-18, carboplatin 72 h", "experimental": "as §3"}, "EL-12-58 cells [3]": {"system": "EL-12-58 cells", "test": "Live cell number and cell death under H2O2 in EL-12-58 cells", "details": "10 μM AP-18; H2O2 for 72 h", "experimental": "as §3"}, "HCC1569 cells": {"system": "HCC1569 cells", "test": "Live cell number and cell death under carboplatin in HCC1569 cells", "details": "carboplatin 72 h", "experimental": "For the measurements of live cell number and cell death under treatment with H2O2, diamide, or chemotherapies, cells were cultured on 96-well plates in the presence or absence of these drugs for indicated times and stained with 5 μM bisBenzimide H 33342 trihydrochloride (Hoechst; Sigma) and 5 μM propidium iodide (PI; Sigma) for 1 h at 37° C. Hoechst- and/or PI-positive cells were counted using a laser scanning cytometer, Acumen Cellista (TTPLabTech). Apoptotic cells induced by H2O2 treatment were measured by staining with Annexin V-Alexa Fluor® 488 conjugate (Life Technologies) and PI in Ca^2+-containing solution (10 mM HEPES pH 7.4, 140 mM NaCl; 2.5 mM CaCl2), followed by flow cytometric measurement of fluorescence using a FACSCalibur. Flow cytometry plots are representative of three independent experiments. For the counting of viable cells cultured in suspension, cell clumps were dissociated with trypsin and stained with trypan blue. Viable cells were counted using the Countless Automated Cell Counters (Thermo Fisher Scientific). For the measurement of percentage of dead cells cultured in suspension, cells were cultured on poly HEMA-coated 96-well plates and stained with 5 μM Hoechst and 5 μM PI for 1 h at 37° C. without enzymatic dissociation of cell clumps. Hoechst- and/or PI-positive areas were measured using Acumen Cellista. Apoptotic cells induced by detachment were measured by staining with 5 μM Hoechst and 5 μM of CellEvent™ Caspase-3/7 Green Detection Reagent (Thermo Fisher Scientific) for 1 h at 37° C. without enzymatic dissociation of cell clumps. Hoechst- and/or CellEvent™ Caspase-3/7 Green Detection Reagent-positive areas were measured using Acumen Cellista. For the cell cycle analysis, enzymatically dissociated cells were fixed with ice-cold 70% EtOH for at least 30 min at 4° C., washed three times with PBS at 4° C., resuspended in PBS, treated with 100 μg/ml RNase A (Sigma), and stained with 50 μg/ml PI. The stained samples were subjected to flow cytometric analysis (FACSCalibur)."}, "TRPA1 [4]": {"target": "T1, TRPA1", "test": "Ca2+ responses to carboplatin in HCC1569 cells", "details": "10 μM AP-18 or 300 nM A-967079", "experimental": "as §2"}, "HCC70": {"system": "HCC70", "test": "Live cell number under carboplatin in HCC70 cells", "details": "10 μM AP-18; carboplatin 72 h; HCC70, very low TRPA1", "experimental": "as §3"}, "BT-549": {"system": "BT-549", "test": "Live cell number under carboplatin in BT-549 cells", "details": "10 μM AP-18; carboplatin 72 h; BT-549, very low TRPA1", "experimental": "as §3"}}, "data": [{"substance": "AP-18", "values": [{"measurement": "increase in [H2O2]i (Hyper-2) in inner region of spheroids", "setting": "HCC1569 spheroids", "value": "unaffected"}, {"measurement": "elevated [Ca2+]i of inner cells of spheroids", "setting": "TRPA1 [1]", "value": "suppressed"}, {"measurement": "increase in [H2O2]i (Hyper-2) in inner ECM-deprived cells", "setting": "MCF-10A acini", "value": "unaffected"}, {"measurement": "sensitization to carboplatin-induced cytotoxicity", "setting": "NSCLC cells; 10 μM AP-18, carboplatin 72 h", "value": "sensitized"}, {"measurement": "sensitization to H2O2-induced cytotoxicity", "setting": "NSCLC cells", "value": "sensitized"}, {"measurement": "sensitization to carboplatin-induced cytotoxicity", "setting": "MPNST cells; 10 μM AP-18, carboplatin 72 h", "value": "sensitized"}, {"measurement": "sensitization to H2O2-induced cytotoxicity", "setting": "MPNST cells", "value": "sensitized"}, {"measurement": "sensitization to carboplatin", "setting": "HCC1500", "value": "minimal to no effect"}, {"measurement": "sensitization to carboplatin", "setting": "EL-12-58 cells [2]", "value": "sensitized"}, {"measurement": "sensitization to H2O2 cytotoxicity", "setting": "EL-12-58 cells [3]", "value": "sensitized"}, {"measurement": "cell death in response to carboplatin treatment", "setting": "HCC1569 cells", "value": "enhanced"}, {"measurement": "live cell number in response to carboplatin treatment", "setting": "HCC1569 cells", "value": "substantially suppressed"}, {"measurement": "[Ca2+]i rises upon carboplatin treatment", "setting": "TRPA1 [4]", "value": "significantly suppressed"}, {"measurement": "oscillatory Ca2+ responses upon carboplatin treatment", "setting": "TRPA1 [4]", "value": "significantly suppressed"}, {"measurement": "sensitization to carboplatin", "setting": "HCC70", "value": "minimal to no effect"}, {"measurement": "sensitization to carboplatin", "setting": "BT-549", "value": "minimal to no effect"}]}]}
